Values of other authors in article PMC3261373 (Bioconjugate Chemistry, 2011).

Key:
[1] = test system: angiogenesis and tumor growth; conditions: in words
αvβ3-integrin = conditions: in vivo blocking studies

In the case of `CC(C)C[C@H](NC(=O)[C@@H](O)[C@H](N)Cc1ccccc1)C(=O)O` [bestatin], the “mode of APN inhibition” value (APN; in words) is listed as “slow-binding competitive inhibitor” and the “effect on angiogenesis and tumor growth” value [1] is listed as “suppressed angiogenesis and tumor growth”.
For cyclic CNGRC [cyclic CNGRC peptide], the “binding affinity to APN” value (APN; enzyme inhibition studies) is given as “moderate binding affinity” and the “binding to APN/CD13” value (APN; in words) is given as “known to bind APN/CD13”.
For “cyclic CisoDGRC [^99mTc-labeled cyclic CisoDGRC conjugate]”, the “binding to tumors and tissues expressing αvβ3-integrin” value (αvβ3-integrin) is listed as “selective binding”.
